Laboratory results: PubChem BioAssay AID2060626 (Molecular Pharmacology Branch, DTP, NCI, 2025)

System: 168753-222-R-J1-PDC complex spheroid viability
Assay: Anticancer human tumor 168753-222-R-J1-PDC patient-derived bladder carcinoma cell line growth inhibition [CLK]
Details: for IC50: curve of first compound; for viability, T/C: stronger effect = lower value
Outline: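 Patient-derived tumor cells grown as complex spheroids with HUVEC endothelial cells and mesenchymal stem cells, treated with drug combinations. Concentrations descend in half-log steps from near clinical Cmax, or from 10 microM if Cmax unknown.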

[1] = second compound 0.0316 µM, first compound 0.0316 µM
[2] = second compound 0.0316 µM, first compound 0.1 µM
[3] = second compound 0.0316 µM, first compound 0.316 µM
[4] = second compound 0.0316 µM, first compound 1 µM
[5] = second compound 0.1 µM, first compound 0.0316 µM
[6] = second compound 0.1 µM, first compound 0.1 µM
[7] = second compound 0.1 µM, first compound 0.316 µM
[8] = second compound 0.1 µM, first compound 1 µM
[9] = second compound 0.316 µM, first compound 0.0316 µM
[10] = second compound 0.316 µM, first compound 0.1 µM
[11] = second compound 0.316 µM, first compound 0.316 µM
[12] = second compound 0.316 µM, first compound 1 µM
[13] = second compound 1 µM, first compound 0.0316 µM
[14] = second compound 1 µM, first compound 0.1 µM
[15] = second compound 1 µM, first compound 0.316 µM
[16] = second compound 1 µM, first compound 1 µM
[17] = second compound 3.16 µM, first compound 0.0316 µM
[18] = second compound 3.16 µM, first compound 0.1 µM
[19] = second compound 3.16 µM, first compound 0.316 µM
[20] = second compound 3.16 µM, first compound 1 µM
[21] = second compound 10 µM, first compound 0.0316 µM
[22] = second compound 10 µM, first compound 0.1 µM
[23] = second compound 10 µM, first compound 0.316 µM
[24] = second compound 10 µM, first compound 1 µM
[25] = second compound 0.0316 µM, first compound 3.16 µM
[26] = second compound 0.0316 µM, first compound 10 µM
[27] = second compound 0.1 µM, first compound 3.16 µM
[28] = second compound 0.1 µM, first compound 10 µM
[29] = second compound 0.316 µM, first compound 3.16 µM
[30] = second compound 0.316 µM, first compound 10 µM
[31] = second compound 1 µM, first compound 3.16 µM
[32] = second compound 1 µM, first compound 10 µM
[33] = second compound 3.16 µM, first compound 3.16 µM
[34] = second compound 3.16 µM, first compound 10 µM
[35] = second compound 10 µM, first compound 3.16 µM
[36] = second compound 10 µM, first compound 10 µM
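Further: viability measured after seven days of drug exposure.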
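Wherever viability, T/C is given: luminescence signal used as surrogate for viable cell amount; 100% = DMSO vehicle control wells.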

What does the source list for `CCc1c2c(nc3ccc(O)cc13)-c1cc3c(c(=O)n1C2)COC(=O)[C@]3(O)CC` + CN1CCN(c2cc(C(=O)Nc3cc4cc(-c5cnn(C)c5)ccc4cn3)ccn2)CC1?
IC50 (second compound 0.0316 µM): 16.9 nM; IC50 (second compound 0.1 µM): < 3.16 nM; IC50 (second compound 0.316 µM): < 3.16 nM; IC50 (second compound 1 µM): < 3.16 nM; IC50 (second compound 3.16 µM): < 3.16 nM; IC50 (second compound 10 µM): < 3.16 nM; viability, T/C (second compound 0.0316 µM, first compound 0.00316 µM): 77.7%; viability, T/C (second compound 0.0316 µM, first compound 0.01 µM): 65.3%; viability, T/C [1]: 29.3%; viability, T/C [2]: 30.1%; viability, T/C [3]: 13.1%; viability, T/C [4]: 8.39%; viability, T/C (second compound 0.1 µM, first compound 0.00316 µM): 32.6%; viability, T/C (second compound 0.1 µM, first compound 0.01 µM): 36.1%; viability, T/C [5]: 20.5%; viability, T/C [6]: 12.4%; viability, T/C [7]: 8.78%; viability, T/C [8]: 6.92%; viability, T/C (second compound 0.316 µM, first compound 0.00316 µM): 9.06%; viability, T/C (second compound 0.316 µM, first compound 0.01 µM): 8.44%; viability, T/C [9]: 7.99%; viability, T/C [10]: 9.04%; viability, T/C [11]: 2.19%; viability, T/C [12]: 0.99%; viability, T/C (second compound 1 µM, first compound 0.00316 µM): 0.14%; viability, T/C (second compound 1 µM, first compound 0.01 µM): 0.16%; viability, T/C [13]: 0.1%; viability, T/C [14]: 0.08%; viability, T/C [15]: 0.24%; viability, T/C [16]: 1.02%; viability, T/C (second compound 3.16 µM, first compound 0.00316 µM): 0.15%; viability, T/C (second compound 3.16 µM, first compound 0.01 µM): 0.15%; viability, T/C [17]: 0.25%; viability, T/C [18]: 0.08%; viability, T/C [19]: 0.11%; viability, T/C [20]: 0.31%; viability, T/C (second compound 10 µM, first compound 0.00316 µM): 0.66%; viability, T/C (second compound 10 µM, first compound 0.01 µM): 0.14%; viability, T/C [21]: 0.19%; viability, T/C [22]: 0.14%; viability, T/C [23]: 0.18%; viability, T/C [24]: 0.45%

For `C=CC(=O)N1CCN(c2nc(=O)n(-c3c(C)ccnc3C(C)C)c3nc(-c4c(O)cccc4F)c(F)cc23)C(C)C1` (stereo unspecified) + CN1CCN(c2cc(C(=O)Nc3cc4cc(-c5cnn(C)c5)ccc4cn3)ccn2)CC1, which IC50 (second compound 0.0316 µM) is on record?
Its IC50 is greater than 10000 nM.

What about the IC50 (second compound 0.1 µM) of the same molecule?
Its IC50 is 3770 nM.

What about the IC50 (second compound 0.316 µM) of the same molecule?
The IC50 was less than 31.6 nM.

And the IC50 (second compound 1 µM)?
Its IC50 is less than 31.6 nM.

And the IC50 (second compound 3.16 µM)?
Its IC50 is less than 31.6 nM.

What about the IC50 (second compound 10 µM) of the same molecule?
The IC50 was less than 31.6 nM.

And the viability, T/C [1]?
Its viability, T/C is 96.6%.

What about the viability, T/C [2] of the same molecule?
The viability, T/C was 107%.

And the viability, T/C [3]?
The viability, T/C was 111%.

What about the viability, T/C [4] of the same molecule?
The viability, T/C was 133%.

And the viability, T/C [25]?
The viability, T/C was 82.8%.

And the viability, T/C [26]?
The viability, T/C was 100%.

What about the viability, T/C [5] of the same molecule?
The viability, T/C was 79.4%.

And the viability, T/C [6]?
The viability, T/C was 84.5%.

What about the viability, T/C [7] of the same molecule?
The viability, T/C was 55.5%.

What about the viability, T/C [8] of the same molecule?
The viability, T/C was 75.3%.

And the viability, T/C [27]?
The viability, T/C was 52.5%.

And the viability, T/C [28]?
Its viability, T/C is 32.1%.

What about the viability, T/C [9] of the same molecule?
The viability, T/C was 16.2%.

What about the viability, T/C [10] of the same molecule?
Its viability, T/C is 13.4%.

What about the viability, T/C [11] of the same molecule?
Its viability, T/C is 14.2%.

What about the viability, T/C [12] of the same molecule?
The viability, T/C was 13.8%.

What about the viability, T/C [29] of the same molecule?
Its viability, T/C is 12.8%.

What about the viability, T/C [30] of the same molecule?
The viability, T/C was 15.2%.

What about the viability, T/C [13] of the same molecule?
Its viability, T/C is 0.29%.

And the viability, T/C [14]?
Its viability, T/C is 0.48%.

And the viability, T/C [15]?
Its viability, T/C is 1.79%.

And the viability, T/C [16]?
Its viability, T/C is 0.27%.

And the viability, T/C [31]?
Its viability, T/C is 0.3%.

And the viability, T/C [32]?
Its viability, T/C is 0.2%.

What about the viability, T/C [17] of the same molecule?
The viability, T/C was 1.43%.

What about the viability, T/C [18] of the same molecule?
The viability, T/C was 0.16%.

What about the viability, T/C [19] of the same molecule?
The viability, T/C was 0.55%.

And the viability, T/C [20]?
The viability, T/C was 0.11%.

And the viability, T/C [33]?
Its viability, T/C is 1.89%.

And the viability, T/C [34]?
Its viability, T/C is 0.22%.

What about the viability, T/C [21] of the same molecule?
Its viability, T/C is 0.21%.

What about the viability, T/C [22] of the same molecule?
The viability, T/C was 0.2%.

What about the viability, T/C [23] of the same molecule?
Its viability, T/C is 0.6%.

And the viability, T/C [24]?
Its viability, T/C is 0.18%.

And the viability, T/C [35]?
Its viability, T/C is 0.4%.

What about the viability, T/C [36] of the same molecule?
The viability, T/C was 0.57%.

Which results are given for `CC1(C)CCC(CN2CCN(c3ccc(C(=O)NS(=O)(=O)c4ccc(NCC5CCOCC5)c([N+](=O)[O-])c4)c(Oc4cnc5[nH]ccc5c4)c3)CC2)=C(c2ccc(Cl)cc2)C1` + CN1CCN(c2cc(C(=O)Nc3cc4cc(-c5cnn(C)c5)ccc4cn3)ccn2)CC1?
IC50 (second compound 0.0316 µM): 675 nM; IC50 (second compound 0.1 µM): 154 nM; IC50 (second compound 0.316 µM): < 31.6 nM; IC50 (second compound 1 µM): < 31.6 nM; IC50 (second compound 3.16 µM): < 31.6 nM; IC50 (second compound 10 µM): < 31.6 nM; viability, T/C [1]: 74.8%; viability, T/C [2]: 84.6%; viability, T/C [3]: 55.5%; viability, T/C [4]: 41.3%; viability, T/C [25]: 31.6%; viability, T/C [26]: 10.2%; viability, T/C [5]: 69.7%; viability, T/C [6]: 60.5%; viability, T/C [7]: 28.1%; viability, T/C [8]: 35.8%; viability, T/C [27]: 33.7%; viability, T/C [28]: 10.3%; viability, T/C [9]: 10.3%; viability, T/C [10]: 10.3%; viability, T/C [11]: 8.72%; viability, T/C [12]: 8.03%; viability, T/C [29]: 8.36%; viability, T/C [30]: 7.08%; viability, T/C [13]: 0.25%; viability, T/C [14]: 0.31%; viability, T/C [15]: 0.77%; viability, T/C [16]: 0.22%; viability, T/C [31]: 0.16%; viability, T/C [32]: 1.27%; viability, T/C [17]: 0.41%; viability, T/C [18]: 0.29%; viability, T/C [19]: 0.71%; viability, T/C [20]: 0.15%; viability, T/C [33]: 1.14%; viability, T/C [34]: 0.49%; viability, T/C [21]: 0.2%; viability, T/C [22]: 0.75%; viability, T/C [23]: 0.51%; viability, T/C [24]: 0.26%; viability, T/C [35]: 0.35%; viability, T/C [36]: 1.21%
